Laboratory results reported in patent publication US11793849B2, “Method of Chinese herbal medicine extract used for treating multiple diseases caused by drug resistant bacteria infection” (priority 2016, dated 2023).
≈ marks a conversion by molar mass, not a printed value. Like-named read-outs stand apart in the source and are kept apart here.

Key:
MDRPA = test: Checkerboard assay (combined-use MIC, FIC); assay type: cell-based, Pseudomonas aeruginosa; conditions: for MIC90 of the antibiotic after combined use / reduction of the antibiotic's MIC50 vs single use / reduction of the antibiotic's MIC90 vs single use / share of strains with FIC ≤ 0.5 / FIC, all strains / MIC50 of the antibiotic after combined use: 20 MDRPAs
Protocol: Test methods of the sensibilization effects of the test product to similar antibiotics: it is operated by referring to a checkerboard assay recommended by NCCLS.
The checkerboard assay is performed in a 96-pore sterile culture plate.
Calculation of a Fractional Inhibitory Concentration (FIC): FIC=S20b combined-use MIC/S20b single-use MIC+antibiotic combined-use MIC/antibiotic single-use MIC. By calculating the FIC, the combined antibacterial interaction between the EA and the antibiotic is evaluated, with synergistic effect for FIC≤0.5, additive effect for 0.5<FIC≤1, indifferent effect for 1<FIC≤2 and antagonistic effect for FIC>2. According to a sterile growth pore, the optimum concentration ratio between the EA and the antibiotic is founded out. At last, the effect of the EA to strengthen the efficacy of the antibiotic is evaluated.

ATCC27853 = test: MIC determination, control strain; assay type: cell-based
[1] = antibiotic with 10% ethanol extract
[2] = antibiotic with 60% ethanol extract
[3] = antibiotic with 95% ethanol extract
[4] = antibiotic with EA (water extract)

MIC90 of the antibiotic after combined use (MDRPA; [1]): 256 µg/mL
reduction of the antibiotic's MIC50 vs single use (MDRPA; [1]): 93.75%
reduction of the antibiotic's MIC90 vs single use (MDRPA; [1]): 50%
MIC50 of the antibiotic after combined use (MDRPA; [2]): 4 µg/mL
MIC90 of the antibiotic after combined use (MDRPA; [2]): 256 µg/mL
reduction of the antibiotic's MIC50 vs single use (MDRPA; [2]): 93.75%
reduction of the antibiotic's MIC90 vs single use (MDRPA; [2]): 50%
MIC50 of the antibiotic after combined use (MDRPA; [3]): 4 µg/mL
MIC90 of the antibiotic after combined use (MDRPA; [3]): 128 µg/mL
reduction of the antibiotic's MIC50 vs single use (MDRPA; [3]): 93.75%
reduction of the antibiotic's MIC90 vs single use (MDRPA; [3]): 75%
MIC50 of the antibiotic after combined use (MDRPA; [4]): 0.5 µg/mL
MIC90 of the antibiotic after combined use (MDRPA; [4]): 256 µg/mL
reduction of the antibiotic's MIC50 vs single use (MDRPA; [4]): 99.2%
reduction of the antibiotic's MIC90 vs single use (MDRPA; [4]): 50%
combined-use MIC (MDRPA; strain P1, EA (P. clypearia 10% ethanol extract) combined with CFP): 32 µg/mL
combined-use MIC (MDRPA; strain P1, EA (P. clypearia water extract) combined with CFP): 32 µg/mL
combined-use MIC (MDRPA; strain P2, EA (P. clypearia 10% ethanol extract) combined with CFP): 128 µg/mL
combined-use MIC (MDRPA; strain P2, EA (P. clypearia water extract) combined with CFP): 128 µg/mL
combined-use MIC (MDRPA; strain P3, EA (P. clypearia 10% ethanol extract) combined with CFP): 2 µg/mL
combined-use MIC (MDRPA; strain P3, EA (P. clypearia water extract) combined with CFP): 2 µg/mL
combined-use MIC (MDRPA; strain P4, EA (P. clypearia 10% ethanol extract) combined with CFP): 4 µg/mL
combined-use MIC (MDRPA; strain P4, EA (P. clypearia water extract) combined with CFP): 4 µg/mL
combined-use MIC (MDRPA; strain P5, EA (P. clypearia 10% ethanol extract) combined with CFP): 256 µg/mL
combined-use MIC (MDRPA; strain P5, EA (P. clypearia water extract) combined with CFP): 256 µg/mL
combined-use MIC (MDRPA; strain P6, EA (P. clypearia 10% ethanol extract) combined with CFP): 256 µg/mL
combined-use MIC (MDRPA; strain P6, EA (P. clypearia water extract) combined with CFP): 256 µg/mL
combined-use MIC (MDRPA; strain P7, EA (P. clypearia 10% ethanol extract) combined with CFP): 8 µg/mL
combined-use MIC (MDRPA; strain P7, EA (P. clypearia water extract) combined with CFP): 16 µg/mL
combined-use MIC (MDRPA; strain P8, EA (P. clypearia 10% ethanol extract) combined with CFP): 0.5 µg/mL
combined-use MIC (MDRPA; strain P8, EA (P. clypearia water extract) combined with CFP): 0.5 µg/mL
combined-use MIC (MDRPA; strain P9, EA (P. clypearia 10% ethanol extract) combined with CFP): 32 µg/mL
combined-use MIC (MDRPA; strain P9, EA (P. clypearia water extract) combined with CFP): 32 µg/mL
combined-use MIC (MDRPA; strain P10, EA (P. clypearia 10% ethanol extract) combined with CFP): 2 µg/mL
combined-use MIC (MDRPA; strain P10, EA (P. clypearia water extract) combined with CFP): 0.5 µg/mL
combined-use MIC (MDRPA; strain P11, EA (P. clypearia 10% ethanol extract) combined with CFP): 4 µg/mL
combined-use MIC (MDRPA; strain P11, EA (P. clypearia water extract) combined with CFP): 4 µg/mL
combined-use MIC (MDRPA; strain P12, EA (P. clypearia 10% ethanol extract) combined with CFP): 2 µg/mL
combined-use MIC (MDRPA; strain P12, EA (P. clypearia water extract) combined with CFP): 0.5 µg/mL
combined-use MIC (MDRPA; strain P13, EA (P. clypearia 10% ethanol extract) combined with CFP): 32 µg/mL
combined-use MIC (MDRPA; strain P13, EA (P. clypearia water extract) combined with CFP): 32 µg/mL
combined-use MIC (MDRPA; strain P14, EA (P. clypearia 10% ethanol extract) combined with CFP): 0.25 µg/mL
combined-use MIC (MDRPA; strain P14, EA (P. clypearia water extract) combined with CFP): 0.5 µg/mL
combined-use MIC (MDRPA; strain P15, EA (P. clypearia 10% ethanol extract) combined with CFP): 8 µg/mL
combined-use MIC (MDRPA; strain P15, EA (P. clypearia water extract) combined with CFP): 16 µg/mL
combined-use MIC (MDRPA; strain P16, EA (P. clypearia 10% ethanol extract) combined with CFP): 256 µg/mL
combined-use MIC (MDRPA; strain P16, EA (P. clypearia water extract) combined with CFP): 256 µg/mL
combined-use MIC (MDRPA; strain P17, EA (P. clypearia 10% ethanol extract) combined with CFP): 0.5 µg/mL
combined-use MIC (MDRPA; strain P17, EA (P. clypearia water extract) combined with CFP): 0.5 µg/mL
combined-use MIC (MDRPA; strain P18, EA (P. clypearia 10% ethanol extract) combined with CFP): 128 µg/mL
combined-use MIC (MDRPA; strain P18, EA (P. clypearia water extract) combined with CFP): 128 µg/mL
combined-use MIC (MDRPA; strain P19, EA (P. clypearia 10% ethanol extract) combined with CFP): 0.5 µg/mL
combined-use MIC (MDRPA; strain P19, EA (P. clypearia water extract) combined with CFP): 0.5 µg/mL
combined-use MIC (MDRPA; strain P20, EA (P. clypearia 10% ethanol extract) combined with CFP): 1 µg/mL
combined-use MIC (MDRPA; strain P20, EA (P. clypearia water extract) combined with CFP): 0.5 µg/mL
MIC (ATCC27853; EA=P. clypearia 10% ethanol extract, read-out: MIC (single use)): 8 µg/mL (≈ 12.4 µM)
MIC (ATCC27853; EA=P. clypearia water extract, read-out: MIC (single use)): 8 µg/mL (≈ 12.4 µM)
MIC (ATCC27853; single use, EA = 60% ethanol extract, read-out: MIC): 8 µg/mL (≈ 12.4 µM)
MIC (ATCC27853; single use, EA = 95% ethanol extract, read-out: MIC): 8 µg/mL (≈ 12.4 µM)
SMILES: CCN1CCN(C(=O)N[C@@H](C(=O)N[C@@H]2C(=O)N3C(C(=O)O)=C(CSc4nnnn4C)CS[C@H]23)c2ccc(O)cc2)C(=O)C1=O [CFP, Cefoperazone]
share of strains with FIC ≤ 0.5 (MDRPA; [1]): 35%
FIC, all strains (MDRPA; [2]): ≤ 2
share of strains with FIC ≤ 0.5 (MDRPA; [2]): 20%
FIC, all strains (MDRPA; [3]): ≤ 2
share of strains with FIC ≤ 0.5 (MDRPA; [3]): 40%
FIC, all strains (MDRPA; [4]): ≤ 2
share of strains with FIC ≤ 0.5 (MDRPA; [4]): 35%
